Test results from US5747484A, “Crystalline cepham acid addition salts and processes for their preparation” (Hoechst Aktiengesellschaft, priority 1994, dated 1998).
Structures can show the parent of a compound that is named as a salt.

Conditions: bovine, in vivo, im, 5 mg/kg
Protocol: The terminal half-lives (t1/2) after single injection (i.m.) of 5 mg of betaine VI (n=2) per kg of body weight for cattle are summarized in Table 1 for compounds according to the invention. […] The known salts sulfate and dihydroiodide from DE 3 706 020 are used as a standard.

Compound | Terminal half-lives (t1/2) [h]
CO/N=C(\C(=O)N[C@@H]1C(=O)N2C(C(=O)[O-])=C(C[n+]3cccc4c3CCCC4)CS[C@H]12)c1csc(N)n1 [Dihydroiodide, reference compound] | 4.19
CO/N=C(\C(=O)N[C@@H]1C(=O)N2C(C(=O)[O-])=C(C[n+]3cccc4c3CCCC4)CS[C@H]12)c1csc(N)n1 [Example 1, Cefquinome-6-hydroxy-1-naphthoate] | 9.20
CO/N=C(\C(=O)N[C@@H]1C(=O)N2C(C(=O)[O-])=C(C[n+]3cccc4c3CCCC4)CS[C@H]12)c1csc(N)n1 [Example 2] | 18.8
CO/N=C(\C(=O)N[C@@H]1C(=O)N2C(C(=O)[O-])=C(C[n+]3cccc4c3CCCC4)CS[C@H]12)c1csc(N)n1 [Example 6] | 5.87
CO/N=C(\C(=O)N[C@@H]1C(=O)N2C(C(=O)[O-])=C(C[n+]3cccc4c3CCCC4)CS[C@H]12)c1csc(N)n1 [Example 9] | 15.6
CO/N=C(\C(=O)N[C@@H]1C(=O)N2C(C(=O)[O-])=C(C[n+]3cccc4c3CCCC4)CS[C@H]12)c1csc(N)n1 [Example 11, cefquinome-2,4-dihydroxybenzoate] | 16.20
CO/N=C(\C(=O)N[C@@H]1C(=O)N2C(C(=O)[O-])=C(C[n+]3cccc4c3CCCC4)CS[C@H]12)c1csc(N)n1 [Example 12] | 15.20
CO/N=C(\C(=O)N[C@@H]1C(=O)N2C(C(=O)[O-])=C(C[n+]3cccc4c3CCCC4)CS[C@H]12)c1csc(N)n1 [Example 13] | 9.21
CO/N=C(\C(=O)N[C@@H]1C(=O)N2C(C(=O)[O-])=C(C[n+]3cccc4c3CCCC4)CS[C@H]12)c1csc(N)n1 [Example 15] | 11.1
CO/N=C(\C(=O)N[C@@H]1C(=O)N2C(C(=O)[O-])=C(C[n+]3cccc4c3CCCC4)CS[C@H]12)c1csc(N)n1 [Example 16] | 9.16
CO/N=C(\C(=O)N[C@@H]1C(=O)N2C(C(=O)[O-])=C(C[n+]3cccc4c3CCCC4)CS[C@H]12)c1csc(N)n1 [Example 17] | 17.8
CO/N=C(\C(=O)N[C@@H]1C(=O)N2C(C(=O)[O-])=C(C[n+]3cccc4c3CCCC4)CS[C@H]12)c1csc(N)n1 [Example 18] | 13.00
CO/N=C(\C(=O)N[C@@H]1C(=O)N2C(C(=O)[O-])=C(C[n+]3cccc4c3CCCC4)CS[C@H]12)c1csc(N)n1 [Example 19] | 7.07
CO/N=C(\C(=O)N[C@@H]1C(=O)N2C(C(=O)[O-])=C(C[n+]3cccc4c3CCCC4)CS[C@H]12)c1csc(N)n1 [Example 20] | 9.39
CO/N=C(\C(=O)N[C@@H]1C(=O)N2C(C(=O)[O-])=C(C[n+]3cccc4c3CCCC4)CS[C@H]12)c1csc(N)n1 [Example 21] | 9.96
CO/N=C(\C(=O)N[C@@H]1C(=O)N2C(C(=O)[O-])=C(C[n+]3cccc4c3CCCC4)CS[C@H]12)c1csc(N)n1 [Example 22] | 8.77
CO/N=C(\C(=O)N[C@@H]1C(=O)N2C(C(=O)[O-])=C(C[n+]3cccc4c3CCCC4)CS[C@H]12)c1csc(N)n1 [Example 23] | 12.70
CO/N=C(\C(=O)N[C@@H]1C(=O)N2C(C(=O)[O-])=C(C[n+]3cccc4c3CCCC4)CS[C@H]12)c1csc(N)n1 [Sulfate, cefquinome sulfate, reference compound] | 2.15
